Experimental data reported in paper PMC4844702, “Selective inhibition of the kinase DYRK1A by targeting its folding process” (Nature Communications, 2016).

Experiments:
RSK2 = biological target: T1, RSK2 (Homo sapiens, UniProt P51812); experiment: Kinase panel (Carna); format: biochemical
T1 construct: purchased Carna Biosciences

BTK = biological target: T2, BTK (Homo sapiens, UniProt Q06187); experiment: Kinase panel (Carna); format: biochemical
T2 construct: purchased Carna Biosciences
Excerpt: (§1) Detailed information on the assay conditions is available on the website of Carna Biosciences (http://www.carnabio.com).

CDK3/CycE1 = biological target: T3, CDK3/CycE1 (Homo sapiens, UniProt Q00526); experiment: Kinase panel (Carna); format: biochemical
T3 construct: purchased Carna Biosciences
Excerpt: as §1

IRAK1 = biological target: T4, IRAK1 (Homo sapiens, UniProt P51617); experiment: Kinase panel (Carna); format: biochemical
T4 construct: purchased Carna Biosciences
Excerpt: as §1

CaMK2α = biological target: T5, CaMK2α (Homo sapiens, UniProt Q9UQM7); experiment: Kinase panel (Carna); format: biochemical
T5 construct: purchased Carna Biosciences
Excerpt: as §1

p70S6Kβ = biological target: T6, p70S6Kβ (Homo sapiens, UniProt Q9UBS0); experiment: Kinase panel (Carna); format: biochemical
T6 construct: purchased Carna Biosciences
Excerpt: as §1

PASK = biological target: T7, PASK (Homo sapiens, UniProt Q96RG2); experiment: Kinase panel (Carna); format: biochemical
T7 construct: purchased Carna Biosciences
Excerpt: as §1

MRCKβ = biological target: T8, MRCKβ (Homo sapiens, UniProt Q9Y5S2); experiment: Kinase panel (Carna); format: biochemical
T8 construct: purchased Carna Biosciences

CHK2 = biological target: T9, CHK2 (Homo sapiens, UniProt O96017); experiment: Kinase panel (Carna); format: biochemical
T9 construct: purchased Carna Biosciences

IRAK4 = biological target: T10, IRAK4 (Homo sapiens, UniProt Q9NWZ3); experiment: Kinase panel (Carna); format: biochemical
T10 construct: purchased Carna Biosciences
Excerpt: as §1

PGK = biological target: T11, PGK (Homo sapiens, UniProt Q13976); experiment: Kinase panel (Carna); format: biochemical
T11 construct: purchased Carna Biosciences
Excerpt: as §1

other 13 kinases = experiment: Endogenous kinases in intact HEK293 cells, western blot; format: cell-based; settings: 3 days
Excerpt: The results are presented as means±s.d. (n=4). […] Representative data from the duplicate experiments are shown.

MAP3K5_Cascade = biological target: T12, MAP3K5_Cascade (Homo sapiens, UniProt Q99683); experiment: Kinase panel (Carna); format: biochemical
T12 construct: purchased Carna Biosciences
Excerpt: as §1

EPHA8 = biological target: T13, EPHA8 (Homo sapiens, UniProt P29322); experiment: Kinase panel (Carna); format: biochemical
T13 construct: purchased Carna Biosciences
Excerpt: as §1

EPHB2 = biological target: T14, EPHB2 (Homo sapiens, UniProt P29323); experiment: Kinase panel (Carna); format: biochemical
T14 construct: purchased Carna Biosciences
Excerpt: as §1

MGC42105 = biological target: T15, MGC42105 (Homo sapiens, UniProt Q8IY84); experiment: Kinase panel (Carna); format: biochemical
T15 construct: purchased Carna Biosciences
Excerpt: as §1

CK1α = biological target: T16, CK1α (Homo sapiens, UniProt P48729); experiment: Kinase panel (Carna); format: biochemical
T16 construct: purchased Carna Biosciences

LYNb = biological target: T17, LYNb (Homo sapiens, UniProt P07948); experiment: Kinase panel (Carna); format: biochemical
T17 construct: purchased Carna Biosciences
Excerpt: as §1

LCK = biological target: T18, LCK (Homo sapiens, UniProt P06239); experiment: Kinase panel (Carna); format: biochemical
T18 construct: purchased Carna Biosciences
Excerpt: as §1

LOK = biological target: T19, LOK (Homo sapiens, UniProt O94804); experiment: Kinase panel (Carna); format: biochemical
T19 construct: purchased Carna Biosciences

IKKε = biological target: T20, IKKε (Homo sapiens, UniProt Q14164); experiment: Kinase panel (Carna); format: biochemical
T20 construct: purchased Carna Biosciences
Excerpt: as §1

SPHK2 = biological target: T21, SPHK2 (Homo sapiens, UniProt Q9NRA0); experiment: Kinase panel (Carna); format: biochemical
T21 construct: purchased Carna Biosciences
Excerpt: as §1

EEF2K = biological target: T22, EEF2K (Homo sapiens, UniProt O00418); experiment: Kinase panel (Carna); format: biochemical
T22 construct: purchased Carna Biosciences
Excerpt: as §1

AurA/TPX2 = biological target: T23, AurA/TPX2 (Homo sapiens, UniProt O14965); experiment: Kinase panel (Carna); format: biochemical
T23 construct: purchased Carna Biosciences
Excerpt: as §1

EPHB3 = biological target: T24, EPHB3 (Homo sapiens, UniProt P54753); experiment: Kinase panel (Carna); format: biochemical
T24 construct: purchased Carna Biosciences
Excerpt: as §1

CK2α2/β = biological target: T25, CK2α2/β (Homo sapiens, UniProt P19784); experiment: Kinase panel (Carna); format: biochemical
T25 construct: purchased Carna Biosciences

MAP2K3_Cascade = biological target: T26, MAP2K3_Cascade (Homo sapiens, UniProt P46734); experiment: Kinase panel (Carna); format: biochemical
T26 construct: purchased Carna Biosciences

PIK3CA/PIK3R1 = biological target: T27, PIK3CA/PIK3R1 (Homo sapiens, UniProt P42336); experiment: Kinase panel (Carna); format: biochemical
T27 construct: purchased Carna Biosciences
Excerpt: as §1

p38β = biological target: T28, p38β (Homo sapiens, UniProt Q15759); experiment: Kinase panel (Carna); format: biochemical
T28 construct: purchased Carna Biosciences
Excerpt: as §1

TXK = biological target: T29, TXK (Homo sapiens, UniProt P42681); experiment: Kinase panel (Carna); format: biochemical
T29 construct: purchased Carna Biosciences
Excerpt: as §1

CK2α1/β = biological target: T30, CK2α1/β (Homo sapiens, UniProt P68400); experiment: Kinase panel (Carna); format: biochemical
T30 construct: purchased Carna Biosciences

PHKG2 = biological target: T31, PHKG2 (Homo sapiens, UniProt P15735); experiment: Kinase panel (Carna); format: biochemical
T31 construct: purchased Carna Biosciences
Excerpt: as §1

TSSK1 = biological target: T32, TSSK1 (Homo sapiens, UniProt Q9BXA7); experiment: Kinase panel (Carna); format: biochemical
T32 construct: purchased Carna Biosciences
Excerpt: as §1

FGR = biological target: T33, FGR (Homo sapiens, UniProt P09769); experiment: Kinase panel (Carna); format: biochemical
T33 construct: purchased Carna Biosciences

DDR1 = biological target: T34, DDR1 (Homo sapiens, UniProt Q08345); experiment: Kinase panel (Carna); format: biochemical
T34 construct: purchased Carna Biosciences

CaMK4 = biological target: T35, CaMK4 (Homo sapiens, UniProt Q16566); experiment: Kinase panel (Carna); format: biochemical
T35 construct: purchased Carna Biosciences

MINK = biological target: T36, MINK (Homo sapiens, UniProt Q8N4C8); experiment: Kinase panel (Carna); format: biochemical
T36 construct: purchased Carna Biosciences
Excerpt: as §1

PIM1 = biological target: T37, PIM1 (Homo sapiens, UniProt P11309); experiment: Kinase panel (Carna); format: biochemical; settings: 10 µM FINDY
T37 construct: purchased Carna Biosciences
Excerpt: as §1

CDK7/CycH/MAT1 = biological target: T38, CDK7/CycH/MAT1 (Homo sapiens, UniProt P50613); experiment: Kinase panel (Carna); format: biochemical
T38 construct: purchased Carna Biosciences
Excerpt: as §1

CK1γ2 = biological target: T39, CK1γ2 (Homo sapiens, UniProt P78368); experiment: Kinase panel (Carna); format: biochemical
T39 construct: purchased Carna Biosciences

EPHA7 = biological target: T40, EPHA7 (Homo sapiens, UniProt Q15375); experiment: Kinase panel (Carna); format: biochemical
T40 construct: purchased Carna Biosciences

FLT1 = biological target: T41, FLT1 (Homo sapiens, UniProt P17948); experiment: Kinase panel (Carna); format: biochemical
T41 construct: purchased Carna Biosciences
Excerpt: as §1

PLK2 = biological target: T42, PLK2 (Homo sapiens, UniProt Q9NYY3); experiment: Kinase panel (Carna); format: biochemical
T42 construct: purchased Carna Biosciences

PKACα = biological target: T43, PKACα (Homo sapiens, UniProt P17612); experiment: Kinase panel (Carna); format: biochemical
T43 construct: purchased Carna Biosciences

T16 sequence (P48729 whole entry): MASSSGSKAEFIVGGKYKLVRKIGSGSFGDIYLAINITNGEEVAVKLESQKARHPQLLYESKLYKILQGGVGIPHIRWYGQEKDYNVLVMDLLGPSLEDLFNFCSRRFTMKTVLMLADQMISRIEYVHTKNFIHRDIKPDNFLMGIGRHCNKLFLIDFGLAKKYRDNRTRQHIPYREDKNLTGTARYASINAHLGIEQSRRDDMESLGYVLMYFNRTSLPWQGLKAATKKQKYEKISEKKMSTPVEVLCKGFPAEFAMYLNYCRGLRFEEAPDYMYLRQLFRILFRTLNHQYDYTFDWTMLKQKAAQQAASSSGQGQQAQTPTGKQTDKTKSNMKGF
T34 sequence (Q08345 19-913): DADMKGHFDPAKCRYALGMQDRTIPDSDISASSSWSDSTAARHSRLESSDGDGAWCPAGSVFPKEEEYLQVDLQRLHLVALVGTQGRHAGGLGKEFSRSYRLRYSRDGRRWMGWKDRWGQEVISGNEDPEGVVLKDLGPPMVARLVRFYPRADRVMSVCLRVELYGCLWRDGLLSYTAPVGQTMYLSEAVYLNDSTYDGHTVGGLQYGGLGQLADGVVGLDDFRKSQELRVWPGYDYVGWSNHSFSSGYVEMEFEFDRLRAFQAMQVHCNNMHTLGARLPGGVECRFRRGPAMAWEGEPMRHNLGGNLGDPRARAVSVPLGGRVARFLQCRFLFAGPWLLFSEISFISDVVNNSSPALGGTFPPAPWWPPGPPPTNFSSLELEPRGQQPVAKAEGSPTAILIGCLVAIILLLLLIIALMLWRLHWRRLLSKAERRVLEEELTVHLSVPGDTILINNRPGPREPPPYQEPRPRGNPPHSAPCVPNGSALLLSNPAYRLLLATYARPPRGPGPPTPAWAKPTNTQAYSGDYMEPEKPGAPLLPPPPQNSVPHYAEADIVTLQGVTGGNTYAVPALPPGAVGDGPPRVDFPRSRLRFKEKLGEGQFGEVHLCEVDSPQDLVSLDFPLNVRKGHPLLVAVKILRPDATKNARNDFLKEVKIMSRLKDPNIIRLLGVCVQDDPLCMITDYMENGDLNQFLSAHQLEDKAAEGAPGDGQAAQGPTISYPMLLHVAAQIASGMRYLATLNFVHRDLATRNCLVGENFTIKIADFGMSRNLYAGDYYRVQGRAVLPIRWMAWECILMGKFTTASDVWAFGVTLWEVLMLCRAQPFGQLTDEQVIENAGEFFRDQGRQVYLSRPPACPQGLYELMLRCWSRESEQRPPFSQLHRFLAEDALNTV
T3 sequence (Q00526 whole entry): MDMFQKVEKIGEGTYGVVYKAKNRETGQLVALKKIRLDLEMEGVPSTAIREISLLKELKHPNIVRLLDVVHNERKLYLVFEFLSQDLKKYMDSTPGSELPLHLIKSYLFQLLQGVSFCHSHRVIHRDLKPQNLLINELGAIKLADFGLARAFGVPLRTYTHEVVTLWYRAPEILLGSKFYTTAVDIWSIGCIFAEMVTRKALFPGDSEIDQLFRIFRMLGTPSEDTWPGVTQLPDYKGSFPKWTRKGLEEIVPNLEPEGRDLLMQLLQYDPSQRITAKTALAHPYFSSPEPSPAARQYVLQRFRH
T3 sequence (P24864 whole entry partner): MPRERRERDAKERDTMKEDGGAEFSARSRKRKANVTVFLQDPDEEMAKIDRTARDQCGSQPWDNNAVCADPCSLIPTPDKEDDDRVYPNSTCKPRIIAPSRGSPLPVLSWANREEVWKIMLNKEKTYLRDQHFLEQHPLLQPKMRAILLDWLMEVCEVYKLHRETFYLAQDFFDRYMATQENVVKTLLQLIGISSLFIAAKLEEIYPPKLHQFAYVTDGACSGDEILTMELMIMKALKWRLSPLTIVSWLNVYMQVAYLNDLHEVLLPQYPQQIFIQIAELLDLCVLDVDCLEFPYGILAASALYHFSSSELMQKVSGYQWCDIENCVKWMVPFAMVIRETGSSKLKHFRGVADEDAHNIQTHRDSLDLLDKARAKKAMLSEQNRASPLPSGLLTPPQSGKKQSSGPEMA
T37 sequence (P11309 whole entry): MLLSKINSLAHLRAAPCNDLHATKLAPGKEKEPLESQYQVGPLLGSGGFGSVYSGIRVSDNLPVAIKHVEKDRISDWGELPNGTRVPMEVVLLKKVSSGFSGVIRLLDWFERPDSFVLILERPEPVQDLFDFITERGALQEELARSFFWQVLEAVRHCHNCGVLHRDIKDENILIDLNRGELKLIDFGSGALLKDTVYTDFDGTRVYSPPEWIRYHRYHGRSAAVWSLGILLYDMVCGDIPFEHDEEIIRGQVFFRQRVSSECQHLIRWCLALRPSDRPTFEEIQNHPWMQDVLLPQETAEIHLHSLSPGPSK
T2 sequence (Q06187 whole entry): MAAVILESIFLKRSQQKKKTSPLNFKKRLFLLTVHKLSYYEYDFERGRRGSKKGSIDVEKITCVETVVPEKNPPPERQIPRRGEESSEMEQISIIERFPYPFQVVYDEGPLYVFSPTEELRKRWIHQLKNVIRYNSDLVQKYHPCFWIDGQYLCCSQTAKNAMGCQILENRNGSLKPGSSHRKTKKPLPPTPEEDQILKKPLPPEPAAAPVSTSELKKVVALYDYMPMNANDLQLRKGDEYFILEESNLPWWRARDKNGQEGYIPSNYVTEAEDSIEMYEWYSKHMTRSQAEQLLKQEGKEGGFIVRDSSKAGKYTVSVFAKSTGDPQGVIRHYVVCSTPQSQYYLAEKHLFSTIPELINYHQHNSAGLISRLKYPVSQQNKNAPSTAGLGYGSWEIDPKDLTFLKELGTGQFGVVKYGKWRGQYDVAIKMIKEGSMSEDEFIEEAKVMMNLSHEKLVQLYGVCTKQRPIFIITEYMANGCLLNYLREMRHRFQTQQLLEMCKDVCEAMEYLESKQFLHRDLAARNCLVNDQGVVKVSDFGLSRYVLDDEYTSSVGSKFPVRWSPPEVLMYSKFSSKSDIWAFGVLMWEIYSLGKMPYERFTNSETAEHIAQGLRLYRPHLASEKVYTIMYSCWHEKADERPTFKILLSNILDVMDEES
T27 sequence (P42336 whole entry): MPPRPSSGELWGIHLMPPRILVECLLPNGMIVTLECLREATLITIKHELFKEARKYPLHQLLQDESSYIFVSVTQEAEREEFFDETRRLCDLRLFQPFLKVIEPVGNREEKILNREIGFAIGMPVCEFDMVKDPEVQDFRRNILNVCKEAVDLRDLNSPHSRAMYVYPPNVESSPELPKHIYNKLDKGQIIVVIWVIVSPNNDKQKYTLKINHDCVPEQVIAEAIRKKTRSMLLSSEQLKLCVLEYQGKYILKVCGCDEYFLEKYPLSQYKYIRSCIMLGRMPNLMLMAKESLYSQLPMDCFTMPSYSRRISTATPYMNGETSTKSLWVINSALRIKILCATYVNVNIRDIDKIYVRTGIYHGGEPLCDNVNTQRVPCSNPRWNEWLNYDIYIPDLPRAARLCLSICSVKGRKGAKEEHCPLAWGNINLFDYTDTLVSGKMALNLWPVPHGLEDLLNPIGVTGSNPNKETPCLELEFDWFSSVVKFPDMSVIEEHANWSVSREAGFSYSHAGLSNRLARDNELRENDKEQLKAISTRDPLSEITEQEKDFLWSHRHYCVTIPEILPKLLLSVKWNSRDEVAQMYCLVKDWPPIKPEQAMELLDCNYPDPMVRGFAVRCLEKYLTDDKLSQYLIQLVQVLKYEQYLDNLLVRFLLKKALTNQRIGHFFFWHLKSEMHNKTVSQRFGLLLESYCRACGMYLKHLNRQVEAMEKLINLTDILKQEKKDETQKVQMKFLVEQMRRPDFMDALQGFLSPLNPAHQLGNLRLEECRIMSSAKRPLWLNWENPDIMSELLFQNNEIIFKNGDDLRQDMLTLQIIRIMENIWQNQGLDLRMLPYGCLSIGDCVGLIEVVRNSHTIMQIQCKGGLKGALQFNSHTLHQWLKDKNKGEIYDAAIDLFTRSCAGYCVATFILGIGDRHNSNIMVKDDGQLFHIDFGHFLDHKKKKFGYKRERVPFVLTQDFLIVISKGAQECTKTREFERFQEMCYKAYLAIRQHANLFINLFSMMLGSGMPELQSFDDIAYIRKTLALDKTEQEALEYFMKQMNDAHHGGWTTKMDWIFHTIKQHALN
T27 sequence (P27986 whole entry partner): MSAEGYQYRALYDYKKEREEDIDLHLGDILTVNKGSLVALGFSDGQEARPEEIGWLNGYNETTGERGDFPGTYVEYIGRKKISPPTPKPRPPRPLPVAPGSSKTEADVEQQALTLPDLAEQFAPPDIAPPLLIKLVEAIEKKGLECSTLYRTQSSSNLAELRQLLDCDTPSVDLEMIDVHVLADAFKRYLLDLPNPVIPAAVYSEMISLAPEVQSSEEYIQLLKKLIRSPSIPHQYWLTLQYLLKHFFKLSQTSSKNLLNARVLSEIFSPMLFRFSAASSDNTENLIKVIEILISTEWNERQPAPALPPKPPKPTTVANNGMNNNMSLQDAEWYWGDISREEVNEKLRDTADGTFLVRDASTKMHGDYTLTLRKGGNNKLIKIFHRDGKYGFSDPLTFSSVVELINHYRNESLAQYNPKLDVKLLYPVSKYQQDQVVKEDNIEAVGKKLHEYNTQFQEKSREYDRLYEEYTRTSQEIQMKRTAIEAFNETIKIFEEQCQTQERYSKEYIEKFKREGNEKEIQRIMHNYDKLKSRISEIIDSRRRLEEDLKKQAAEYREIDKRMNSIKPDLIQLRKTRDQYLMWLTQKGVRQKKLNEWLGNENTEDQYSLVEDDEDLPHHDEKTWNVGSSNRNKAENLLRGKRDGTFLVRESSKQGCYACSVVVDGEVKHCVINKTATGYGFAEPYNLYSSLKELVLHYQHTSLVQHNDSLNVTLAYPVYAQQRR

COc1ccc(/C=C2\SC(=S)NC2=O)cc1C#C[Si](C)(C)C [FINDY]
inhibition at 10 µM (RSK2): 39.9% | inhibition at 10 µM (BTK): 57.9% | inhibition at 10 µM (CDK3/CycE1): 20.7% | inhibition at 10 µM (IRAK1): -1.1% | inhibition at 10 µM (CaMK2α): -6.9% | inhibition at 10 µM (p70S6Kβ): 19.9% | inhibition at 10 µM (PASK): 11.9% | inhibition at 10 µM (MRCKβ): 0.1% | inhibition at 10 µM (CHK2): 6.3% | inhibition at 10 µM (IRAK4): -0.8% | inhibition at 10 µM (PGK): 2.6% | endogenous expression of the other 13 kinases (other 13 kinases): no alteration | inhibition at 10 µM (MAP3K5_Cascade): 32.1% | inhibition at 10 µM (EPHA8): 48.8% | inhibition at 10 µM (EPHB2): 10.1% | inhibition at 10 µM (MGC42105): 12.5% | inhibition at 10 µM (CK1α): 6.1% | inhibition at 10 µM (LYNb): 11.4% | inhibition at 10 µM (LCK): 7.2% | inhibition at 10 µM (LOK): -28.2% | inhibition at 10 µM (IKKε): -2% | inhibition at 10 µM (SPHK2): 4.9% | inhibition at 10 µM (EEF2K): -3.7% | inhibition at 10 µM (AurA/TPX2): 25.1% | inhibition at 10 µM (EPHB3): 22.2% | inhibition at 10 µM (CK2α2/β): 72.5% | inhibition at 10 µM (MAP2K3_Cascade): 26% | inhibition at 10 µM (PIK3CA/PIK3R1): 12.8% | inhibition at 10 µM (p38β): 11.2% | inhibition at 10 µM (TXK): 23.7% | inhibition at 10 µM (CK2α1/β): 45.4% | inhibition at 10 µM (PHKG2): 1.9% | inhibition at 10 µM (TSSK1): 3.3% | inhibition at 10 µM (FGR): 5.3% | inhibition at 10 µM (DDR1): -3.2% | inhibition at 10 µM (CaMK4): 2.4% | inhibition at 10 µM (MINK): 5% | inhibition at 10 µM (PIM1): 76.8% | inhibition at 10 µM (CDK7/CycH/MAT1): 15.2% | inhibition at 10 µM (CK1γ2): 27.7% | inhibition at 10 µM (EPHA7): 18.7% | inhibition at 10 µM (FLT1): 6.6% | inhibition at 10 µM (PLK2): 11.1% | inhibition at 10 µM (PKACα): 64.7%
